Laboratory results: US20200283384A1, “ANTIBACTERIAL COMPOUNDS AND METHODS OF USE THEREOF” (Wayne State University, priority 2016, published 2020)
In brackets after ≈: the same amount, converted by molar mass. Like-named read-outs stand apart in the source and are kept apart here.

System: 24 strains of S. aureus (SA1-SA24)
Test: Broth micro-dilution MIC against 24 strains of S. aureus
Format: cell-based
Details: for Effect against the panel of S. aureus strains: 24 strains SA1-SA24, broth micro-dilution; for MIC: Staphylococcus aureus, read-out: Compound MIC
Experimental: Compounds were tested for their anti-bacterial activity against 56 clinical isolates including 24 clinical isolates of methicillin resistant S. aureus (MRSA) and methicillin-susceptible S. aureus (MSSA), 8 strains of Enterococcus, 8 strains of Acinetobacter baumannii, 8 strains of Klebsiella pneumoniae, and 8 strains of Pseudomonas aeruginosa using a standard broth micro-dilution method as recommended by the Clinical and Laboratory Standard Institute (CLSI, M100, s23).
HN18 HN19, and HN34 were tested by a broth micro-dilution method to determine their minimal inhibitory concentration (MIC) against 24 strains of S. aureus (SA1-SA24) (Table 2). […]. Furthermore, the results for HN18 and HN34 were consistent across four repeated experiments. […]

Cc1[nH]c2ccccc2c1C(c1ccc(F)c(F)c1)c1c(C)[nH]c2ccccc12 [HN34]
Effect against the panel of S. aureus strains: effective
MIC (isolate SA1, experiment I): 1 µg/mL (≈ 2.59 µM)
MIC (isolate SA1, experiment II): 2 µg/mL (≈ 5.18 µM)
MIC (isolate SA1, experiment III): 1 µg/mL (≈ 2.59 µM)
MIC (isolate SA1, experiment IV): 1 µg/mL (≈ 2.59 µM)
MIC (isolate SA2, experiment I): 2 µg/mL (≈ 5.18 µM)
MIC (isolate SA2, experiment II): 2 µg/mL (≈ 5.18 µM)
MIC (isolate SA2, experiment III): 1 µg/mL (≈ 2.59 µM)
MIC (isolate SA2, experiment IV): 1 µg/mL (≈ 2.59 µM)
MIC (isolate SA3, experiment I): 2 µg/mL (≈ 5.18 µM)
MIC (isolate SA3, experiment II): 2 µg/mL (≈ 5.18 µM)
MIC (isolate SA3, experiment III): 2 µg/mL (≈ 5.18 µM)
MIC (isolate SA3, experiment IV): 2 µg/mL (≈ 5.18 µM)
MIC (isolate SA4, experiment I): 2 µg/mL (≈ 5.18 µM)
MIC (isolate SA4, experiment II): 2 µg/mL (≈ 5.18 µM)
MIC (isolate SA4, experiment III): 2 µg/mL (≈ 5.18 µM)
MIC (isolate SA5, experiment I): 1 µg/mL (≈ 2.59 µM)
MIC (isolate SA5, experiment II): 2 µg/mL (≈ 5.18 µM)
MIC (isolate SA5, experiment III): 1 µg/mL (≈ 2.59 µM)
MIC (isolate SA5, experiment IV): 2 µg/mL (≈ 5.18 µM)
MIC (isolate SA6, experiment I): 1 µg/mL (≈ 2.59 µM)
MIC (isolate SA6, experiment II): 1 µg/mL (≈ 2.59 µM)
MIC (isolate SA6, experiment III): 1 µg/mL (≈ 2.59 µM)
MIC (isolate SA6, experiment IV): 1 µg/mL (≈ 2.59 µM)
MIC (isolate SA7, experiment I): 1 µg/mL (≈ 2.59 µM)
MIC (isolate SA7, experiment II): 1 µg/mL (≈ 2.59 µM)
MIC (isolate SA7, experiment III): 1 µg/mL (≈ 2.59 µM)
MIC (isolate SA7, experiment IV): 1 µg/mL (≈ 2.59 µM)
MIC (isolate SA8, experiment I): 2 µg/mL (≈ 5.18 µM)
MIC (isolate SA8, experiment II): 2 µg/mL (≈ 5.18 µM)
MIC (isolate SA8, experiment III): 2 µg/mL (≈ 5.18 µM)
MIC (isolate SA8, experiment IV): 2 µg/mL (≈ 5.18 µM)
MIC (isolate SA9, experiment I): 0.5 µg/mL (≈ 1.29 µM)
MIC (isolate SA10, experiment I): 1 µg/mL (≈ 2.59 µM)
MIC (isolate SA11, experiment I): 1 µg/mL (≈ 2.59 µM)
MIC (isolate SA12, experiment I): 1 µg/mL (≈ 2.59 µM)
MIC (isolate SA13, experiment I): 1 µg/mL (≈ 2.59 µM)
MIC (isolate SA14, experiment I): 0.25 µg/mL (≈ 0.647 µM)
MIC (isolate SA15, experiment I): 1 µg/mL (≈ 2.59 µM)
MIC (isolate SA16, experiment I): 1 µg/mL (≈ 2.59 µM)
MIC (isolate SA17, experiment I): 1 µg/mL (≈ 2.59 µM)
MIC (isolate SA18, experiment I): 1 µg/mL (≈ 2.59 µM)
MIC (isolate SA19, experiment I): 1 µg/mL (≈ 2.59 µM)
MIC (isolate SA20, experiment I): 2 µg/mL (≈ 5.18 µM)
MIC (isolate SA21, experiment I): 1 µg/mL (≈ 2.59 µM)
MIC (isolate SA22, experiment I): 1 µg/mL (≈ 2.59 µM)
MIC (isolate SA23, experiment I): 1 µg/mL (≈ 2.59 µM)
MIC (isolate SA24, experiment I): 1 µg/mL (≈ 2.59 µM)

Fc1ccc(C(C2=CNC3C=CC=CC23)C2=C3C=CC=CC3NC2)cc1F (centres unmarked) [HN18, 3-((3,4-difluorophenyl)(2,7a-dihydro-1H-indol-3-yl)methyl)-3a,7a-dihydro-1H-indole]
Effect against the panel of S. aureus strains: effective
MIC (isolate SA1, experiment I): 0.5 µg/mL (≈ 1.38 µM)
MIC (isolate SA1, experiment II): 1 µg/mL (≈ 2.76 µM)
MIC (isolate SA1, experiment III): 1 µg/mL (≈ 2.76 µM)
MIC (isolate SA1, experiment IV): 1 µg/mL (≈ 2.76 µM)
MIC (isolate SA2, experiment I): 1 µg/mL (≈ 2.76 µM)
MIC (isolate SA2, experiment II): 2 µg/mL (≈ 5.52 µM)
MIC (isolate SA2, experiment III): 2 µg/mL (≈ 5.52 µM)
MIC (isolate SA2, experiment IV): 2 µg/mL (≈ 5.52 µM)
MIC (isolate SA3, experiment I): 1 µg/mL (≈ 2.76 µM)
MIC (isolate SA3, experiment II): 2 µg/mL (≈ 5.52 µM)
MIC (isolate SA3, experiment III): 2 µg/mL (≈ 5.52 µM)
MIC (isolate SA3, experiment IV): 2 µg/mL (≈ 5.52 µM)
MIC (isolate SA4, experiment I): 1 µg/mL (≈ 2.76 µM)
MIC (isolate SA4, experiment II): 2 µg/mL (≈ 5.52 µM)
MIC (isolate SA4, experiment III): 1 µg/mL (≈ 2.76 µM)
MIC (isolate SA4, experiment IV): 2 µg/mL (≈ 5.52 µM)
MIC (isolate SA5, experiment I): 1 µg/mL (≈ 2.76 µM)
MIC (isolate SA5, experiment II): 1 µg/mL (≈ 2.76 µM)
MIC (isolate SA5, experiment III): 1 µg/mL (≈ 2.76 µM)
MIC (isolate SA5, experiment IV): 2 µg/mL (≈ 5.52 µM)
MIC (isolate SA6, experiment I): 1 µg/mL (≈ 2.76 µM)
MIC (isolate SA6, experiment II): 2 µg/mL (≈ 5.52 µM)
MIC (isolate SA6, experiment III): 2 µg/mL (≈ 5.52 µM)
MIC (isolate SA6, experiment IV): 2 µg/mL (≈ 5.52 µM)
MIC (isolate SA7, experiment I): 0.5 µg/mL (≈ 1.38 µM)
MIC (isolate SA7, experiment II): 1 µg/mL (≈ 2.76 µM)
MIC (isolate SA7, experiment III): 1 µg/mL (≈ 2.76 µM)
MIC (isolate SA7, experiment IV): 1 µg/mL (≈ 2.76 µM)
MIC (isolate SA8, experiment I): 1 µg/mL (≈ 2.76 µM)
MIC (isolate SA8, experiment II): 2 µg/mL (≈ 5.52 µM)
MIC (isolate SA8, experiment III): 2 µg/mL (≈ 5.52 µM)
MIC (isolate SA8, experiment IV): 2 µg/mL (≈ 5.52 µM)
MIC (isolate SA9, experiment I): 2 µg/mL (≈ 5.52 µM)
MIC (isolate SA9, experiment II): 2 µg/mL (≈ 5.52 µM)
MIC (isolate SA10, experiment I): 2 µg/mL (≈ 5.52 µM)
MIC (isolate SA10, experiment II): 2 µg/mL (≈ 5.52 µM)
MIC (isolate SA11, experiment I): 2 µg/mL (≈ 5.52 µM)
MIC (isolate SA11, experiment II): 2 µg/mL (≈ 5.52 µM)
MIC (isolate SA12, experiment I): 2 µg/mL (≈ 5.52 µM)
MIC (isolate SA12, experiment II): 2 µg/mL (≈ 5.52 µM)
MIC (isolate SA13, experiment I): 2 µg/mL (≈ 5.52 µM)
MIC (isolate SA13, experiment II): 2 µg/mL (≈ 5.52 µM)
MIC (isolate SA14, experiment I): 0.5 µg/mL (≈ 1.38 µM)
MIC (isolate SA14, experiment II): 0.5 µg/mL (≈ 1.38 µM)
MIC (isolate SA15, experiment I): 2 µg/mL (≈ 5.52 µM)
MIC (isolate SA15, experiment II): 2 µg/mL (≈ 5.52 µM)
MIC (isolate SA16, experiment I): 1 µg/mL (≈ 2.76 µM)
MIC (isolate SA16, experiment II): 2 µg/mL (≈ 5.52 µM)
MIC (isolate SA17, experiment I): 2 µg/mL (≈ 5.52 µM)
MIC (isolate SA17, experiment II): 2 µg/mL (≈ 5.52 µM)
MIC (isolate SA18, experiment I): 2 µg/mL (≈ 5.52 µM)
MIC (isolate SA18, experiment II): 2 µg/mL (≈ 5.52 µM)
MIC (isolate SA19, experiment I): 2 µg/mL (≈ 5.52 µM)
MIC (isolate SA19, experiment II): 2 µg/mL (≈ 5.52 µM)
MIC (isolate SA20, experiment I): 2 µg/mL (≈ 5.52 µM)
MIC (isolate SA20, experiment II): 2 µg/mL (≈ 5.52 µM)
MIC (isolate SA21, experiment I): 2 µg/mL (≈ 5.52 µM)
MIC (isolate SA21, experiment II): 2 µg/mL (≈ 5.52 µM)
MIC (isolate SA22, experiment I): 2 µg/mL (≈ 5.52 µM)
MIC (isolate SA22, experiment II): 2 µg/mL (≈ 5.52 µM)
MIC (isolate SA23, experiment I): 2 µg/mL (≈ 5.52 µM)
MIC (isolate SA23, experiment II): 2 µg/mL (≈ 5.52 µM)
MIC (isolate SA24, experiment I): 2 µg/mL (≈ 5.52 µM)
MIC (isolate SA24, experiment II): 2 µg/mL (≈ 5.52 µM)
